Columns and labels:
human mGluR5d = target: T1, human mGluR5d (Homo sapiens, UniProt P41594); experiment: FLIPR assay: mobilization of intracellular calcium in cells expressing human mGluR5d; type: cell-based; settings: antagonism of agonist-induced [Ca2+]i response, read-out: FLIPR hmGluR5d
T1 construct: expressed in transfected cells; The separate IP3 assay names GHEK cells
Description: Functional Assessment of mGluR5 Antagonism in Cell Lines Expressing mGluR5D
The properties of the compounds of the invention can be analyzed using standard assays for pharmacological activity. Examples of glutamate receptor assays are well known in the alt as described in for example Aramori et al., Neuron 8:757 (1992), Tanabe et al., Neuron 8:169 (1992), Miller et al., J. Neuroscience 15: 6103 (1995), Balazs, et al., J. Neurochemistry 69:151 (1997). The methodology described in these publications is incorporated herein by reference. Conveniently, the compounds of the invention can be studied by means of an assay (FLIPR) that measures the mobilization of intracellular calcium, [Ca^2+]i in cells expressing mGluR5 or another assay (IP3) that measures inositol phosphate turnover.
Cells expressing human mGluR5d as described in WO97/05252 cultured in a mixture of high glucose DMEM with Glutamax (31966-021)(500 mL), 10% dialyzed fetal bovine serum (Hyclone #SH30079.03)(56 mL), 200 μg/in L Hygromycin B (Invitrogen 45-0430, 50 mg/mL)(2.2 mL), 200 μg/mL Zeocin (Invitrogen #R250-01; 100 mg/mL)(1.1 mL) are seeded at a density of 100,000 cells per well on collagen coated clear bottom 96-well plates with black sides and cells were allowed to adhere over night before experiments. All assays are done in a buffer containing 146 mM NaCl, 5 mM KCl, 1 mM MgCl2, 1 mM CaCl2, 20 mM HEPES, 1 mg/mL glucose and 1 mg/mL BSA Fraction IV (pH 7.4). Cell cultures in the 96-well plates are loaded for 60 minutes in the above mentioned buffer containing 6 μM of the acetoxymethyl ester form of the fluorescent calcium indicator fluo-3 (Molecular Probes, Eugene, Oreg.) in 0.025% pluronic acid (a proprietary, non-ionic surfactant polyol—CAS Number 9003-11-6). Following the loading period the fluo-3 buffer is removed and replaced with fresh assay buffer. FLIPR experiments are done using a laser setting of 0.700 W and a 0.4 second CCD camera shutter speed with excitation and emission wavelengths of 488 nm and 562 nm, respectively. Each experiment is initiated with 160 μl of buffer present in each well of the cell plate. A 40 μl addition from the antagonist plate was followed by a 50 μL addition from the agonist plate. A 30 minutes, in dark at 25° C., interval separates the antagonist and agonist additions. The fluorescence signal is sampled 50 times at 1-second intervals followed by 3 samples at 5-second intervals immediately after each of the two additions. Responses are measured as the difference between the peak heights of the response to agonist less the background fluorescence within the sample period. IC50 determinations are made using a […] least squares fitting program.

[1] = Determination of brain to plasma ratio in rat; type: in vivo; settings: brain and plasma, female Sprague Dawley rats, drug in brain over drug in plasma, read-out: Brain/Plasma Ratio of compound in Rat
Experimental: Brain to plasma ratios are estimated in female Sprague Dawley rats. The compound is dissolved in water or another appropriate vehicle. For determination of brain to plasma ratio the compound is administrated as a subcutaneous, or an intravenous bolus injection, or an intravenous infusion, or an oral administration. At a predetermined time point after the administration a blood sample is taken with cardiac puncture. The rat is terminated by cutting the heart open, and the brain is immediately retained. The blood samples are collected in heparinized tubes and centrifuged within 30 minutes, in order to separate the plasma from the blood cells. The plasma is transferred to 96-well plates and stored at −20° C. until analysis. The brains are divided in halt and each half is placed in a pre-tarred tube and stored at −20° C. until analysis. Prior to the analysis, the brain samples are thawed and 3 mL/g brain tissue of distilled water is added to the tubes. The brain samples are sonicated in an ice bath until the samples are homogenized. Both brain and plasma samples are precipitated with acetonitrile. After centrifugation, the supernatant is diluted with 0.2% formic acid. Analysis is performed on a short reversed-phase HPLC column with rapid gradient elution and MSMS detection using a triple quadrupole instrument with electrospray ionisation and Selected Reaction Monitoring (SRM) acquisition. Liquid-liquid extraction may be used as an alternative sample clean-up. The samples are extracted, by shaking, to an organic solvent after addition of a suitable buffer. An aliquot of the organic layer is transferred to a new vial and evaporated to dryness under a stream of nitrogen. After reconstitution of the residuals the samples are ready for injection onto the HPLC column.

T1 sequence (P41594 21-942 isoform P41594-3 limits assumed): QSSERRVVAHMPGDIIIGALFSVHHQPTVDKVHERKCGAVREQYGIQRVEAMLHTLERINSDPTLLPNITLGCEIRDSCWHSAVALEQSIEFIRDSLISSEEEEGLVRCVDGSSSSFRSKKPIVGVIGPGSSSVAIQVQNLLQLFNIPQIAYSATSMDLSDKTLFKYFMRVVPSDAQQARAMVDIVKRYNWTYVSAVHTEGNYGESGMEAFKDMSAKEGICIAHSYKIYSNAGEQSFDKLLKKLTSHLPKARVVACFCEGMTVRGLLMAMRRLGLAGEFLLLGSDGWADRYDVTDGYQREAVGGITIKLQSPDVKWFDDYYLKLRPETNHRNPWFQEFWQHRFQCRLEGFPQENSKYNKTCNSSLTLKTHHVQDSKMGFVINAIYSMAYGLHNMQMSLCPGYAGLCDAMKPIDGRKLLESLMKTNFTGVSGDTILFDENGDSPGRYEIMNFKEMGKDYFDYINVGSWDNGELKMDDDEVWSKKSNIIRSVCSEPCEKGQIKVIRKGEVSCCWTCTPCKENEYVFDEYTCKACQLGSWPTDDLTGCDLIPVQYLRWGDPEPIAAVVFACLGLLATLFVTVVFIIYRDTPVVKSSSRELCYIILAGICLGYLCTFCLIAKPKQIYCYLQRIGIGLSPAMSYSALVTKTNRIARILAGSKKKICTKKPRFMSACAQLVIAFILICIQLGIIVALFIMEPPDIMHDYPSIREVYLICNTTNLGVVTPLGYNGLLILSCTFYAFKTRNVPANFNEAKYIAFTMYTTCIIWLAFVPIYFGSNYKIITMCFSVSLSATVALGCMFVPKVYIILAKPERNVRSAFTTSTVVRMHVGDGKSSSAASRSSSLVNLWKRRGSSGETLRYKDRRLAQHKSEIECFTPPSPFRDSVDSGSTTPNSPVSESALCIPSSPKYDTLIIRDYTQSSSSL

SMILES	IC50 (human mGluR5d) [nM]	Kp [1]
C[C@@H](Oc1nnc(-c2ccc(C(N)=O)cc2)n1C)c1noc(-c2cccc(Cl)c2)n1 [Example 10.1, 4-(5-{(1R)-1-[5-(3-Chlorophenyl)-1,2,4-oxadiazol-3-yl]ethoxy}-4-methyl-4H-1,2,4-triazol-3-yl)benzamide]	8	0.03
C[C@@H](Oc1nnc(-c2ccc(C(N)=O)cc2)n1C)c1nnn(-c2cccc(Cl)c2)n1 [Example 10.2, 4-(5-{(1R)-1-[2-(3-Chlorophenyl)-2H-tetrazol-5-yl]ethoxy}-4-methyl-4H-1,2,4-triazol-3-yl)benzamide]	6	0.01
C[C@@H](Oc1nnc(-c2ccc(C(N)=O)cn2)n1C)c1nnn(-c2cccc(Cl)c2)n1 [Example 10.3, 6-(5-{(1R)-1-[2-(3-Chlorophenyl)-2H-tetrazol-5-yl]ethoxy}-4-methyl-4H-1,2,4-triazol-3-yl)nicotinamide]	5	0.075
Cc1cccc(-n2nnc([C@@H](C)Oc3nnc(-c4ccc(C(N)=O)cn4)n3C)n2)c1 [Example 10.4, 6-(4-Methyl-5-{(1R)-1-[2-(3-methylphenyl)-2H-tetrazol-5-yl]ethoxy}-4H-1,2,4-triazol-3-yl)nicotinamide]	6	0.09

Reference: patent US20090111857A1, “1,2,4-TRIAZOLE ETHER DERIVATIVES AS MODULATORS OF MGLUR5” (AstraZeneca AB, priority 2007, published 2009)
